According to patent publication US20230310406A1 (priority 2020, published 2023):
Where two headings read alike, the source gives them in different places.

Legend:
Mu (MOP) receptor = Mu (MOP) receptor (Homo sapiens, UniProt P35372); format: biochemical
Kappa (KOP) receptor = Kappa (KOP) receptor (Homo sapiens, UniProt P41145); format: biochemical
ORL1 (NOP) receptor = ORL1 (NOP) receptor (Homo sapiens, UniProt P41146); assay: in vitro pharmacology at ORL1 receptor; format: biochemical
Sigma opiate sites = assay: in vitro affinity at sigma opiate sites; format: binding
[1] = target: T1, adrenergic receptor Alpha 1B (Homo sapiens, UniProt P35368); assay: in vitro antagonistic activity at adrenergic Alpha 1B; format: biochemical
T1 sequence (P35368 1-520): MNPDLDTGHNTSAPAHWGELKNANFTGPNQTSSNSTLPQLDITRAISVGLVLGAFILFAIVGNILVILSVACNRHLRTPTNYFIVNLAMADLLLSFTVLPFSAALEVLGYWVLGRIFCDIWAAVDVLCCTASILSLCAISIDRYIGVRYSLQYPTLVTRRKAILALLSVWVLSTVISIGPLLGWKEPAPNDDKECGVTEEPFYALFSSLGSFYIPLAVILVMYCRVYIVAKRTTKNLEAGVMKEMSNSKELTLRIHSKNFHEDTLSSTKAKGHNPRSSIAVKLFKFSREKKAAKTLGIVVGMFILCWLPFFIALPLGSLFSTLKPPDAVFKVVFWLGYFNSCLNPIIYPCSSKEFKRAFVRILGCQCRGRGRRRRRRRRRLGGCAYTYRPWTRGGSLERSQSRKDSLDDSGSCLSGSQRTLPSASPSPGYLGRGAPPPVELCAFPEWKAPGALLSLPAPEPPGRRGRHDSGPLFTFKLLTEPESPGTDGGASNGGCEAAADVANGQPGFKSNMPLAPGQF

[2] = target: T2, adrenergic receptor Alpha 2B (Homo sapiens, UniProt P18089); assay: in vitro antagonistic activity at adrenergic Alpha 2B; format: biochemical
T2 sequence (P18089 1-450): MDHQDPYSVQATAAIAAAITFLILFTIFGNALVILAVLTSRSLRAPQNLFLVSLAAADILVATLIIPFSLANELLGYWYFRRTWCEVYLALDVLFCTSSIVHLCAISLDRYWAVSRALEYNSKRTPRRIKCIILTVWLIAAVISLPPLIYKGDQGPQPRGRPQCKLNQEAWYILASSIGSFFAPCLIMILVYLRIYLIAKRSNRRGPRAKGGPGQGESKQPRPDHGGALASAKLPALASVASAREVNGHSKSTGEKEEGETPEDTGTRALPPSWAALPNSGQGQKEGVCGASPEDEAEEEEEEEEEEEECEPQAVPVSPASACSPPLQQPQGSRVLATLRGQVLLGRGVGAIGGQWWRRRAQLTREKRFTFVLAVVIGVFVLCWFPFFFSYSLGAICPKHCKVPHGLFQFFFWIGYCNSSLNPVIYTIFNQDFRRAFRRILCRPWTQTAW

[3] = target: T3, adrenergic receptor Alpha 2C (Homo sapiens, UniProt P18825); assay: in vitro antagonistic activity at adrenergic Alpha 2C; format: biochemical
T3 sequence (P18825 1-462): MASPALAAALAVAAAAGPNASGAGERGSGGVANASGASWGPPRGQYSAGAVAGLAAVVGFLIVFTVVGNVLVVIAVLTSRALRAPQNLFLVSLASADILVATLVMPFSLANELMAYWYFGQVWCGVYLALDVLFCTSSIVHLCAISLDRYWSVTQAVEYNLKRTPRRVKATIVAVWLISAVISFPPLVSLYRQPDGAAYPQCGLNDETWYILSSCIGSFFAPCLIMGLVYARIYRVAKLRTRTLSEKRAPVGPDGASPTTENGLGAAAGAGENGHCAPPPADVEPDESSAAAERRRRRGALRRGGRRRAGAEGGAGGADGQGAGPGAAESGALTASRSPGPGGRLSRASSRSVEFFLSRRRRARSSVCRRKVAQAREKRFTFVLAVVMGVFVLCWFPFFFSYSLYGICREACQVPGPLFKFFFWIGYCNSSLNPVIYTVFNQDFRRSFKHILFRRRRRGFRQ

histamine H1 receptor = histamine H1 receptor (Homo sapiens, UniProt P35367); assay: in vitro antagonistic activity at histamine H1; format: biochemical
[4] = target: T4, cholinergic muscarinic receptor 1 (Homo sapiens, UniProt P11229); assay: in vitro antagonistic activity at muscarinic receptor 1; format: biochemical
T4 sequence (P11229 1-460): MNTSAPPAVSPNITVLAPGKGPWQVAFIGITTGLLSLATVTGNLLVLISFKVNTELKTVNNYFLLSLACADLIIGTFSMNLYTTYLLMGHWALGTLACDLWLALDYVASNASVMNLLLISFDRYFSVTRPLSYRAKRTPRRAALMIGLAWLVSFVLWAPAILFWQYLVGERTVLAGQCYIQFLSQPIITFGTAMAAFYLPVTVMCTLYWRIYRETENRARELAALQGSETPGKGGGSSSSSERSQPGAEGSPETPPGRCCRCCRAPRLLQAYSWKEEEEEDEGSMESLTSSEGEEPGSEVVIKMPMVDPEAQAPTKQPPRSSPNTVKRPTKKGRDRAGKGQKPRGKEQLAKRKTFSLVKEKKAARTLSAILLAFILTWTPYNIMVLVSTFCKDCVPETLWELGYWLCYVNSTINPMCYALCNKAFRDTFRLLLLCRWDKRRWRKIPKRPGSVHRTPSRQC

[5] = target: cholinergic muscarinic receptor 3 (Homo sapiens, UniProt P20309); assay: in vitro antagonistic activity at muscarinic receptor 3; format: biochemical
[6] = target: T5, cholinergic muscarinic receptor 4 (Homo sapiens, UniProt P08173); assay: in vitro antagonistic activity at muscarinic receptor 4; format: biochemical
T5 sequence (P08173 1-479): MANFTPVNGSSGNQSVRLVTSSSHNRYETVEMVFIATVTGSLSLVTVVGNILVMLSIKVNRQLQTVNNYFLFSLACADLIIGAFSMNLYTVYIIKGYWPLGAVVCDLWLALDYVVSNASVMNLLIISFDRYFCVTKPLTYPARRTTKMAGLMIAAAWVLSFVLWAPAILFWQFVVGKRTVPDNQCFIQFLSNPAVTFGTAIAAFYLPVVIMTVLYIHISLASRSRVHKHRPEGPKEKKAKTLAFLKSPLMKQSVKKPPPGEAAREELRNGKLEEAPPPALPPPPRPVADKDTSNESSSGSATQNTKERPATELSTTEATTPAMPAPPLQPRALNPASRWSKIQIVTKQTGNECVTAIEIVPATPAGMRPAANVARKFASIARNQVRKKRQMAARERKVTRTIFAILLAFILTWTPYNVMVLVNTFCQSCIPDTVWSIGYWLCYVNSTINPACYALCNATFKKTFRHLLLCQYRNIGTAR

[7] = target: T6, cholinergic muscarinic receptor 5 (Homo sapiens, UniProt P08912); assay: in vitro antagonistic activity at muscarinic receptor 5; format: biochemical
T6 sequence (P08912 1-532): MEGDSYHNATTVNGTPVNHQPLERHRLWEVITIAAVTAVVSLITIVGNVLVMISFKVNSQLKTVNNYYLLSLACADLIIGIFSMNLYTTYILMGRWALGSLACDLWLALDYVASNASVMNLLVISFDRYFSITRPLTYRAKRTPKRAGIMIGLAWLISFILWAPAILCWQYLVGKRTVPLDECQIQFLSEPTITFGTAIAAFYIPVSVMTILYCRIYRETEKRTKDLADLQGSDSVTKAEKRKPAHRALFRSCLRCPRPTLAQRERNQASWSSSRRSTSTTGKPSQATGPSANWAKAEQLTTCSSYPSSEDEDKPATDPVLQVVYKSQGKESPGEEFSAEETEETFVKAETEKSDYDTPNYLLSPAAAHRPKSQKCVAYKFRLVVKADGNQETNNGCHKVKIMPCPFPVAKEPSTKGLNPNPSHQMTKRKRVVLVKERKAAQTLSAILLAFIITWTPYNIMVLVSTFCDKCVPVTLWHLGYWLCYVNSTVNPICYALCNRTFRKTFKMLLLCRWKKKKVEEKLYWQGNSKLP

dopamine D4 receptor = target: T7, dopamine D4 receptor (Homo sapiens, UniProt P21917); assay: in vitro antagonistic activity at dopamine D4; format: biochemical
T7 sequence (P21917 1-419): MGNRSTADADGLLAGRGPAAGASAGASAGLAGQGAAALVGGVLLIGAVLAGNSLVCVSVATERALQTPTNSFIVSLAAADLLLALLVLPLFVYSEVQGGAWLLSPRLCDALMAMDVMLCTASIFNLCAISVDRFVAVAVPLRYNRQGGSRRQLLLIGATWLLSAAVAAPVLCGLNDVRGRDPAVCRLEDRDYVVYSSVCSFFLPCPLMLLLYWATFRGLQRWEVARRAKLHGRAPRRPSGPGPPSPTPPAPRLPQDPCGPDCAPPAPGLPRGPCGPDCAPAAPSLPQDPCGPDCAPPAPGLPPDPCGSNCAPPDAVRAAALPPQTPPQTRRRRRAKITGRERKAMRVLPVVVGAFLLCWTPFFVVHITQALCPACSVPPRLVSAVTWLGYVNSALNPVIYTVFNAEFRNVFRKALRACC

serotonin receptor 1A = target: T8, serotonin receptor 1A (Homo sapiens, UniProt P08908); assay: in vitro antagonistic activity at serotonin receptor 1A; format: biochemical
T8 sequence (P08908 1-422): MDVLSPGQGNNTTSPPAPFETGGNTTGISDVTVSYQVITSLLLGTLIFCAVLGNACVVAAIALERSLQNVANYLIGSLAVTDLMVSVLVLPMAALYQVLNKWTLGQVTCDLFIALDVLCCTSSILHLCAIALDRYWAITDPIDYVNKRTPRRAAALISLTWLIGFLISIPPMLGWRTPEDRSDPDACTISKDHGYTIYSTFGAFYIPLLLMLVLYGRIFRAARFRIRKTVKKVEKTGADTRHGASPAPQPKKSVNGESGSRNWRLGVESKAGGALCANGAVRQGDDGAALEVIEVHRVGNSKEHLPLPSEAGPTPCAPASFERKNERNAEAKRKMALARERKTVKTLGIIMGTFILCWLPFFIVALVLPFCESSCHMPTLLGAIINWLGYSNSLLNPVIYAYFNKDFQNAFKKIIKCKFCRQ

serotonin receptor 1B = serotonin receptor 1B (Homo sapiens, UniProt P28222); assay: in vitro antagonistic activity at serotonin receptor 1B; format: biochemical
serotonin receptor 1B, sequence (P28222 whole entry): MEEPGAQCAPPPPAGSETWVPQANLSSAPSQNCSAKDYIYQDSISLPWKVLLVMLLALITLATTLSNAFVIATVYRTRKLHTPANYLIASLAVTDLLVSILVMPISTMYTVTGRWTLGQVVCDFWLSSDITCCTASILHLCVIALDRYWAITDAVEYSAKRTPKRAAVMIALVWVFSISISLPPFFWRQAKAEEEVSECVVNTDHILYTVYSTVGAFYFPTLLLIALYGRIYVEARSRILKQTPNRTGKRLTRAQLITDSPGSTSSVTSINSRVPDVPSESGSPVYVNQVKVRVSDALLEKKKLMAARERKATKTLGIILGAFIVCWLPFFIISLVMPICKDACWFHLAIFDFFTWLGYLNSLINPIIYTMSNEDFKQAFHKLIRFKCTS

ORL1 (NOP) receptor, sequence (P41146 whole entry): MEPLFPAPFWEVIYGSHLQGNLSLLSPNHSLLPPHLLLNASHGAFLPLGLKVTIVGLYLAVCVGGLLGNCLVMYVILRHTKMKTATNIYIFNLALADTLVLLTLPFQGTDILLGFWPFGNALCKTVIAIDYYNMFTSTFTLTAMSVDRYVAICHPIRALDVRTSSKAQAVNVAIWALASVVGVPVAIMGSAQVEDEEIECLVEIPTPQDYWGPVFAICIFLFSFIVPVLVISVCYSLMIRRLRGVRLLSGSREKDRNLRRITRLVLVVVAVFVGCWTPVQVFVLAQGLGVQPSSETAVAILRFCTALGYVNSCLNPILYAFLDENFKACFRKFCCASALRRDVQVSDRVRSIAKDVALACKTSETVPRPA
Kappa (KOP) receptor, sequence (P41145 whole entry): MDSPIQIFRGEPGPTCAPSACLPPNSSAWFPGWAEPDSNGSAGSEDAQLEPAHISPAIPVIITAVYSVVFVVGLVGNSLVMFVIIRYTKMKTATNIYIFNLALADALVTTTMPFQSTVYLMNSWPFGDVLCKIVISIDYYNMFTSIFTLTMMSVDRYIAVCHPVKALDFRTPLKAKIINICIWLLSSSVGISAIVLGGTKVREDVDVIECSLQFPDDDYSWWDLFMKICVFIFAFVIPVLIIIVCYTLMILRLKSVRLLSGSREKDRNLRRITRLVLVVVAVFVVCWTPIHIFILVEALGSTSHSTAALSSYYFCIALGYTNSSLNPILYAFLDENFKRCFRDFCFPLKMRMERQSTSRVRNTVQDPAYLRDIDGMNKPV
histamine H1 receptor, sequence (P35367 whole entry, species assumed): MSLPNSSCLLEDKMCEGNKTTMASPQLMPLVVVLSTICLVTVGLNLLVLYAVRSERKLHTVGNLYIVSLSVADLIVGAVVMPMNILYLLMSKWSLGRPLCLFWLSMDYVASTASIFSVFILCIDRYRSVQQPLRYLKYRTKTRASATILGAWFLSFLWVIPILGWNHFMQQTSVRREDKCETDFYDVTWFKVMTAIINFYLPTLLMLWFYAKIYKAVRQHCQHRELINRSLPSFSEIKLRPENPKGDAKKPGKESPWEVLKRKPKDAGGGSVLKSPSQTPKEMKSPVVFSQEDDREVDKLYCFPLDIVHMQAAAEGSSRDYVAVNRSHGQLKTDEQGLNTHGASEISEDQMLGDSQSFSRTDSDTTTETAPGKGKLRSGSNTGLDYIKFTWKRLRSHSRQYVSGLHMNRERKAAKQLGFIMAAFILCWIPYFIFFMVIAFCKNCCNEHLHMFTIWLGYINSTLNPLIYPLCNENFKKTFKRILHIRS
cholinergic muscarinic receptor 3, sequence (P20309 whole entry): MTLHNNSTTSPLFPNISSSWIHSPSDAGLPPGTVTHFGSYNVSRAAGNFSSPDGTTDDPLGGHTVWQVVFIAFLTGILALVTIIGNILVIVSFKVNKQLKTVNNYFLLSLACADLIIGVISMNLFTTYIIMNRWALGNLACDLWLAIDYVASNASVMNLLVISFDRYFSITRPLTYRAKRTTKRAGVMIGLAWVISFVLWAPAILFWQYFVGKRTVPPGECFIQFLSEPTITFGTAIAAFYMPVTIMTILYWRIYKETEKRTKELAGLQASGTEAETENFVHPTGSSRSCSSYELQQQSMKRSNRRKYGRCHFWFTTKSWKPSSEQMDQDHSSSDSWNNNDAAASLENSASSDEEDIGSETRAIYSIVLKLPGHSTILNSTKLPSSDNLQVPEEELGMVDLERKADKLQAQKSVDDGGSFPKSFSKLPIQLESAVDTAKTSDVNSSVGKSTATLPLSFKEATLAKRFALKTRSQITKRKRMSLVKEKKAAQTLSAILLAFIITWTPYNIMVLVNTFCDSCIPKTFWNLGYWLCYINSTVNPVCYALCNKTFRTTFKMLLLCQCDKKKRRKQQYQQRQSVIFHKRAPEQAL
Mu (MOP) receptor, sequence (P35372 whole entry): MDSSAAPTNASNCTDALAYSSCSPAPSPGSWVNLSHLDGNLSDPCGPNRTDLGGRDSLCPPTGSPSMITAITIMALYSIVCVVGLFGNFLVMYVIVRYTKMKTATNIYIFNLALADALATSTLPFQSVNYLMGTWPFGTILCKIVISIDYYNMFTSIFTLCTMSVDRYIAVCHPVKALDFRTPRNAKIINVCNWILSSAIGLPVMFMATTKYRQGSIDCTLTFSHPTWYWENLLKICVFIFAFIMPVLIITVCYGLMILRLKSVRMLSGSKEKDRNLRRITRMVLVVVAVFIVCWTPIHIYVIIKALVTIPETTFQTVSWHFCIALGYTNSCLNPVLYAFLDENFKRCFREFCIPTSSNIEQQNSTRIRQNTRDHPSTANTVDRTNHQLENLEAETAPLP

Compound | Receptor Mu (MOP): mode of action (Mu (MOP) receptor) | Receptor Kappa (KOP): mode of action (Kappa (KOP) receptor) | Receptor ORL1 (NOP): mode of action (ORL1 (NOP) receptor) | Receptor ORL1 (NOP): mode of action (ORL1 (NOP) receptor; listed as compound 1) | Receptor Sigma: affinity (Sigma opiate sites; listed as compound 1) | activity at adrenergic receptor Alpha 1B [1] | activity at adrenergic receptor Alpha 2B [2] | activity at adrenergic receptor Alpha 2C [3] | activity at histamine H1 receptor (histamine H1 receptor) | activity at cholinergic muscarinic receptor 1 [4] | activity at cholinergic muscarinic receptor 3 [5] | activity at cholinergic muscarinic receptor 4 [6] | activity at cholinergic muscarinic receptor 5 [7] | activity at dopamine D4 receptor (dopamine D4 receptor) | activity at serotonin receptor 1A (serotonin receptor 1A) | activity at serotonin receptor 1B (serotonin receptor 1B) | Receptor Sigma: affinity (Sigma opiate sites)
CCC(=O)NC1CC(C)N(CCc2ccccc2)CC1C (stereo not drawn) [Compound 1, 1-(2-phenylethyl)2,5-dimethyl-4-propionilaminopiperidine] | partial agonist | Antagonist | Antagonist | antagonist | activity | antagonistic activity | antagonistic activity | antagonistic activity | antagonistic activity | antagonistic activity | antagonistic activity | antagonistic activity | antagonistic activity | antagonistic activity | antagonistic activity | antagonistic activity | 
C=CCN1CC[C@]23c4c5ccc(O)c4O[C@H]2C(=O)CC[C@@]3(O)[C@H]1C5 [Naloxone] |  |  |  |  |  |  |  |  |  |  |  |  |  |  |  |  | Weak
O=C1CC[C@@]2(O)[C@H]3Cc4ccc(O)c5c4[C@@]2(CCN3CC2CC2)[C@H]1O5 [Naltrexone] |  |  |  |  |  |  |  |  |  |  |  |  |  |  |  |  | Weak
